# Source: the supplement of paper PMC10307832
# Assays:
# Assay in all cases: relative viability (nuclei count vs DMSO), 5 days (fraction); higher = more cells survive
# [1] = test system: NCI-H23
# Summary of the method: (§1)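 After 5 days of treatment, lung cancer cells in 1536-well plates were fixed and stained in a single step (final 0.05% Triton X-100, 1% formaldehyde, 1 ug/ml Hoechst) and their nuclei counted on 4× images. Treatment had been applied by pin tool the day after seeding as one drug alone or as a fixed anchor-drug dose with five library-drug doses (not always all listed) in √10 steps. Relative viability is the nuclei count of treated wells divided by that of vehicle wells, and values are medians of duplicate plates.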
# [2] = test system: NCI-H1944
# Summary of the method: as §1
# [3] = test system: EKVX
# Summary of the method: as §1
# [4] = test system: SK-LU-1
# Summary of the method: as §1
# [5] = test system: EMC-BAC-2
# Summary of the method: as §1
# [6] = test system: LCLC-97TM1
# Summary of the method: as §1
# [7] = test system: HARA
# Summary of the method: as §1
# [8] = test system: NCI-H2126
# Summary of the method: as §1
# [9] = test system: H3255
# Summary of the method: as §1
# [10] = test system: NCI-H322M
# Summary of the method: as §1
# [11] = test system: NCI-H1437
# Summary of the method: as §1
# [12] = test system: HCC-827
# Summary of the method: as §1
# [13] = test system: NCI-H460
# Summary of the method: as §1
# [14] = test system: HCC-15
# Summary of the method: as §1
# [15] = test system: NCI-H441
# Summary of the method: as §1
# [16] = test system: LC-2-ad
# Summary of the method: as §1
# [17] = test system: SW 900
# Summary of the method: as §1
# [18] = test system: ChaGo-K-1
# Summary of the method: as §1
# [19] = test system: PC-3 [JPC-3]
# Summary of the method: as §1
# [20] = test system: NCI-H1915
# Summary of the method: as §1
# [21] = test system: NCI-H661
# Summary of the method: as §1
# [22] = test system: NCI-H522
# Summary of the method: as §1
# [23] = test system: LU99A
# Summary of the method: as §1
# [24] = test system: NCI-H1793
# Summary of the method: as §1
compound,measurement,setting,value
CCCCCCCCCCCC1=C(O)C(=O)C=C(O)C1=O [Embelin] + Cc1cc(Nc2cc(N3CCN(C)CC3)nc(Sc3ccc(NC(=O)C4CC4)cc3)n2)n[nH]1 [Tozasertib] (partner 0.1 µM),relative viability,[1]; first compound 0.08 µM,0.47
same,relative viability,[1]; first compound 0.8 µM,0.462
same,relative viability,[1]; first compound 2.53 µM,0.36
same,relative viability,[1]; first compound 8 µM,0.34
same,relative viability,[2]; first compound 0.08 µM,0.262
same,relative viability,[2]; first compound 0.8 µM,0.261
same,relative viability,[2]; first compound 2.53 µM,0.262
same,relative viability,[2]; first compound 8 µM,0.276
same,relative viability,[3]; first compound 0.08 µM,0.387
same,relative viability,[3]; first compound 0.8 µM,0.381
same,relative viability,[3]; first compound 2.53 µM,0.412
same,relative viability,[3]; first compound 8 µM,0.417
same,relative viability,[4]; first compound 0.08 µM,0.377
same,relative viability,[4]; first compound 0.8 µM,0.369
same,relative viability,[4]; first compound 2.53 µM,0.379
same,relative viability,[4]; first compound 8 µM,0.323
same,relative viability,[5]; first compound 0.08 µM,0.27
same,relative viability,[5]; first compound 0.8 µM,0.318
same,relative viability,[5]; first compound 2.53 µM,0.269
same,relative viability,[5]; first compound 8 µM,0.267
same,relative viability,[6]; first compound 0.08 µM,0.186
same,relative viability,[6]; first compound 0.8 µM,0.239
same,relative viability,[6]; first compound 2.53 µM,0.265
same,relative viability,[6]; first compound 8 µM,0.218
same,relative viability,[7]; first compound 0.08 µM,0.106
same,relative viability,[7]; first compound 0.8 µM,0.105
same,relative viability,[7]; first compound 2.53 µM,0.119
same,relative viability,[7]; first compound 8 µM,0.133
same,relative viability,[8]; first compound 0.08 µM,0.809
same,relative viability,[8]; first compound 0.8 µM,0.907
same,relative viability,[8]; first compound 2.53 µM,0.919
same,relative viability,[8]; first compound 8 µM,0.878
same,relative viability,[9]; first compound 0.08 µM,0.716
same,relative viability,[9]; first compound 0.8 µM,0.595
same,relative viability,[9]; first compound 2.53 µM,0.812
same,relative viability,[9]; first compound 8 µM,0.851
same,relative viability,[10]; first compound 0.08 µM,0.526
same,relative viability,[10]; first compound 0.8 µM,0.52
same,relative viability,[10]; first compound 2.53 µM,0.521
same,relative viability,[10]; first compound 8 µM,0.503
same,relative viability,[11]; first compound 0.08 µM,0.41
same,relative viability,[11]; first compound 0.8 µM,0.417
same,relative viability,[11]; first compound 2.53 µM,0.457
same,relative viability,[11]; first compound 8 µM,0.448
same,relative viability,[12]; first compound 0.08 µM,0.428
same,relative viability,[12]; first compound 0.8 µM,0.447
same,relative viability,[12]; first compound 2.53 µM,0.419
same,relative viability,[12]; first compound 8 µM,0.424
same,relative viability,[13]; first compound 0.08 µM,0.516
same,relative viability,[13]; first compound 0.8 µM,0.493
same,relative viability,[13]; first compound 2.53 µM,0.666
same,relative viability,[13]; first compound 8 µM,0.883
same,relative viability,[14]; first compound 0.08 µM,0.412
same,relative viability,[14]; first compound 0.8 µM,0.486
same,relative viability,[14]; first compound 2.53 µM,0.55
same,relative viability,[14]; first compound 8 µM,0.401
same,relative viability,[15]; first compound 0.08 µM,0.588
same,relative viability,[15]; first compound 0.8 µM,0.628
same,relative viability,[15]; first compound 2.53 µM,0.624
same,relative viability,[15]; first compound 8 µM,0.629
same,relative viability,[16]; first compound 0.08 µM,0.469
same,relative viability,[16]; first compound 0.8 µM,0.421
same,relative viability,[16]; first compound 2.53 µM,0.52
same,relative viability,[16]; first compound 8 µM,0.441
same,relative viability,[17]; first compound 0.08 µM,0.438
same,relative viability,[17]; first compound 0.8 µM,0.672
same,relative viability,[17]; first compound 2.53 µM,0.511
same,relative viability,[17]; first compound 8 µM,0.718
same,relative viability,[18]; first compound 0.08 µM,0.243
same,relative viability,[18]; first compound 0.8 µM,0.239
same,relative viability,[18]; first compound 2.53 µM,0.212
same,relative viability,[18]; first compound 8 µM,0.243
same,relative viability,[19]; first compound 0.08 µM,0.843
same,relative viability,[19]; first compound 0.8 µM,0.944
same,relative viability,[19]; first compound 2.53 µM,0.927
same,relative viability,[19]; first compound 8 µM,0.991
same,relative viability,[20]; first compound 0.08 µM,0.463
same,relative viability,[20]; first compound 0.8 µM,0.448
same,relative viability,[20]; first compound 2.53 µM,0.458
same,relative viability,[20]; first compound 8 µM,0.49
same,relative viability,[21]; first compound 0.08 µM,0.366
same,relative viability,[21]; first compound 0.8 µM,0.34
same,relative viability,[21]; first compound 2.53 µM,0.318
same,relative viability,[21]; first compound 8 µM,0.337
same,relative viability,[22]; first compound 0.08 µM,0.617
same,relative viability,[22]; first compound 0.8 µM,0.577
same,relative viability,[22]; first compound 2.53 µM,0.513
same,relative viability,[22]; first compound 8 µM,0.532
same,relative viability,[23]; first compound 0.08 µM,0.331
same,relative viability,[23]; first compound 0.8 µM,0.261
same,relative viability,[23]; first compound 2.53 µM,0.277
same,relative viability,[23]; first compound 8 µM,0.264
same,relative viability,[24]; first compound 0.08 µM,0.399
same,relative viability,[24]; first compound 0.8 µM,0.44
same,relative viability,[24]; first compound 2.53 µM,0.4
same,relative viability,[24]; first compound 8 µM,0.327
